Where two headings read alike, the source gives them in different places.
Columns and labels:
[1] = system: cerebral lipid peroxidation; assay: TBARS assay, SNP-induced lipid peroxidation in brain homogenate; type: biochemical, mouse; conditions: mouse brain homogenate, SNP-induced
Experimental: Brains from mice of both sexes were used for in vitro assays, each performed in duplicate across three independent experiments (n = 3), conducted on different days.
The brain tissues were homogenized in a 50 mM Tris-HCl buffer at pH 7.4, using a 1:10 ratio (w/v). The freshly prepared homogenate was then centrifuged at 900g for 10 min, yielding a low-speed supernatant (S1). Lipid peroxidation was evaluated using the TBARS method as previously described. Lipid peroxidation was induced by 0.3 mM SNP. A 100 μL aliquot of S1 was incubated for 1 h at 37 °C in the presence of the compounds 3A, 3B, and 3C at concentrations ranging from 25 to 500 μM, and SNP or water (to control). The color reaction was initiated by adding 500 μL of a 0.8% thiobarbituric acid (TBA) solution, followed by 200 μL of 8.1% sodium dodecyl sulfate (SDS) and 500 μL of acetic acid (pH 3.4). The reaction mixture was incubated at 95 °C for 1 h. The absorbance was measured using a spectrophotometer at a wavelength of 532 nm. Trolox (100 μM), an antioxidant analogous to vitamin E, served as a positive control. The results were reported as nmol TBARS per gram of tissue. A parallel TBARS experiment was also conducted using a standard alkyl aryl selenide (2-((phenylselanyl)-methyl)-pyridine), dissolved in DMSO at the same concentrations tested, ranging from 25 to 500 μM.

MAO-B = molecular target: T1, MAO-B (Mus musculus, UniProt Q8BW75); assay: Cerebral MAO-B activity, mitochondria-enriched mouse brain fraction (kynuramine, fluorimetric); type: biochemical
T1 construct: Mitochondria-enriched brain preparations were obtained in accordance with established methodology outlined in literature; from tissue; host or cells: mouse brain, mitochondria-enriched fraction
T1 sequence (Q8BW75 1-520): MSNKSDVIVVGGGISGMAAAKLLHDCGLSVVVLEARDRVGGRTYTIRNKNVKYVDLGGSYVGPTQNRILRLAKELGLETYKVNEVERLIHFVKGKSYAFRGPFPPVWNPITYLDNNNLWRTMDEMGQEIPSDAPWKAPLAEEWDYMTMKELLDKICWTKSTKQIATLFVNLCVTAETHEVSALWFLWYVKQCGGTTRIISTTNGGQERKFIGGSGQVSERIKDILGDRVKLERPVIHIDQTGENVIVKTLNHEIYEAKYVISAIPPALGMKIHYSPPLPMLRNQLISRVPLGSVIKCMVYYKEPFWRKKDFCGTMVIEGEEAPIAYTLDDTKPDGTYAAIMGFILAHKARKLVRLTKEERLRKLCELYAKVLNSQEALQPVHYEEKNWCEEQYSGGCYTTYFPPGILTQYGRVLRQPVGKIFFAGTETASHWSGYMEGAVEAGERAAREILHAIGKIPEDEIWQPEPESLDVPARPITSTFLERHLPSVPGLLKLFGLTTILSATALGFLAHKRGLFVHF
Experimental: (§1) Mitochondria-enriched brain preparations were obtained in accordance with established methodology outlined in literature. The homogenate was prepared using the mouse brain tissue and a homogenization buffer (Na2PO4/KH2PO4/sucrose) at a ratio of 1:4 (w/v). The homogenate was centrifuged at 900g at 4 °C for 5 min. The resulting supernatant was separated and subjected to centrifugation at 12,500g for 15 min. The resulting pellet was resuspended in the homogenization buffer and subjected to a further round of centrifugation under identical conditions. Finally, the mitochondrial pellet obtained was reconstituted in an assay buffer solution (Na2PO4/KH2PO4/KCl). Protein concentration was estimated using the Bradford method and standardized as 1 mg/mL for the experiments.
(§2) MAO activity was assessed following the method outlined by Krajl, with some modifications by Matsumoto. Briefly, a 100 μL aliquot of the mitochondria-rich fraction was incubated at 37 °C for 5 min with specific MAO inhibitors: clorgyline (250 nM, a MAO-A inhibitor), or pargyline (250 nM, a MAO-B inhibitor). Then, 10 μL of each compound was introduced at varying concentrations (25–200 μM). Water (10 μL) was used in the control tubes. Afterward, the substrate, 20 μL of kynuramine dihydrobromide, was added to achieve a final concentration of 90 μM for MAO-A and 60 μM for MAO-B. The samples were incubated at 37 °C for 30 min. The reaction was halted by the addition of 300 μL of 10% trichloroacetic acid (TCA). After centrifuging at 16,000g for 15 min, an aliquot of 800 μL of the supernatant was mixed with 1 mL of 1 M sodium hydroxide (NaOH). The samples were measured using a fluorimeter with excitation at 315 nm and emission at 380 nm.

MAO-A = molecular target: T2, MAO-A (Mus musculus, UniProt Q64133); assay: Cerebral MAO-A activity, mitochondria-enriched mouse brain fraction (kynuramine, fluorimetric); type: biochemical; conditions: for Concentrations with significant inhibition of MAO-A activity: tested 25–200 μM, Dunnett vs control
T2 construct: Mitochondria-enriched brain preparations were obtained in accordance with established methodology outlined in literature; from tissue; host or cells: mouse brain, mitochondria-enriched fraction
T2 sequence (Q64133 1-526): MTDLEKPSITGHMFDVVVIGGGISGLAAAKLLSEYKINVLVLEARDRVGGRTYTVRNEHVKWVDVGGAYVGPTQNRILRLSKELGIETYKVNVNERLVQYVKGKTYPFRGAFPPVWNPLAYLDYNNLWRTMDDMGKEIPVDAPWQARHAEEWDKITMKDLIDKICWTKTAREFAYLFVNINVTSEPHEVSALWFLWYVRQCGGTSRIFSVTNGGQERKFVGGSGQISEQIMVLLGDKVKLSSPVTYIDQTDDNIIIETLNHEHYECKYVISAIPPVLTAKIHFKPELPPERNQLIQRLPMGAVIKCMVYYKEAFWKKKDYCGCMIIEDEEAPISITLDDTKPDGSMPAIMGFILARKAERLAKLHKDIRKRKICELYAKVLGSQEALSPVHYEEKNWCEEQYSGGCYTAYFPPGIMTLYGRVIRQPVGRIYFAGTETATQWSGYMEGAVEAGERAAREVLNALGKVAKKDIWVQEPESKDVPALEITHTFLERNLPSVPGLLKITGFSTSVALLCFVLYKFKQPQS
Experimental: as §1, §2

SMILES	IC50 [1] [µM]	IC50 (MAO-B) [µM]	IC50 (MAO-A) [µM]	Concentrations with significant inhibition of MAO-A activity (MAO-A)	IC50 (MAO-B; mouse brain mitochondria-rich fraction, 25–200 μM, kynuramine 60 μM, read-out: IC50 for MAO-B) [µM]	Concentrations with significant inhibition of MAO-B activity (MAO-B; tested 25–200 μM, Dunnett vs control) [µM]	IC50 (MAO-A; mouse brain mitochondria-rich fraction, 25–200 μM, kynuramine 90 μM, read-out: IC50 for MAO-A) [µM]
O=C(C[n+]1ccccc1C[Se]c1ccccc1)c1ccccc1.[Br-] [Compound 3A, 1-(2-oxo-2-phenylethyl)-2-((phenylselanyl)methyl)pyridin-1-ium bromide]	150	129	238	≥ 50 µM	–	–	–
Cc1ccc(C(=O)C[n+]2ccccc2C[Se]c2ccccc2)cc1 [Compound 3B, 1-(2-oxo-2-(p-tolyl)ethyl)-2-((phenylselanyl)methyl)pyridin-1-ium bromide]	130	–	–	all concentrations tested	91.1	≥ 50	73.9

Reference: publication PMC12498411, “Antidepressant-like Properties of a Selenium-Containing Pyridinium Salt Explored through In Vitro, In Vivo, and In Silico Approaches” (ACS Chemical Neuroscience, 2025)
